Laboratory results taken from patent US20190029987A1, “DIMETHYL FUMARATE (DMF) FOR PREVENTION OR TREATMENT OF GOUT, ACNE, DIABETES, VITILIGO AND/OR PYODERMA GANGRENOSUM” (UNIVERSITAT ZURICH, priority 2016, published 2019).

Legend:
NLRP3 inflammasome [1] = molecular target: T1, NLRP3 inflammasome (Homo sapiens, UniProt Q96P20); assay: Nigericin-induced IL-1β secretion in human PBMCs (ELISA); type: cell-based; conditions: 10 μM 1 h before nigericin (5 μM), 5 h, FIG. 2C
T1 construct: endogenous in cells
Text: (§1) To determine the effects of Nrf2 activating compounds on inflammasome activation, the inventors treated keratinocytes with different doses of SFN, tBHQ, DMF or 15d-PGJ2 and irradiated the cells with UVB.
(§2) SFN, DMF, 15d-PGJ2, tBHQ, zymosan, ATP, poly(dA:dT), cycloheximide, puromycin, and doxycycline were purchased from Sigma (Munich, Germany), nigericin from Enzo Life Sciences (New York, US-NY), MG132 from Calbiochem (Darmstadt, Germany), and blasticidin from Invivogen (Toulouse, France). Release of IL-1p was determined by ELISA according the instructions of the manufacturer (R&D Systems, Minneapolis, US-MN). MSU crystals were prepared by crystallisation of a supersaturated solution of uric acid under mildly basic conditions. Briefly, uric acid was added to a solution of NaOH, the solution was boiled until the uric acid was dissolved and passed through a filter. NaCl was added and crystallisation was performed at 4° C. Crystals were filtered, then dried using a speedvac, weighted and autoclaved.
(§3) (A) HPKs were treated with the indicated concentrations of the Nrf2 activating compound tBHQ irradiated with UVB 30 min later and harvested after 5 h. ELISA measurements were performed for quantification of IL-1β secretion and Western blots for analysis of expression and activation of the indicated proteins. Specific bands are marked with an asterisk. (B) THP-1 cells were differentiated with PMA (27 nM) for 3 d, primed with upLPS (100 ng/ml) overnight, and 1 h before inflammasome activation (5 μM nigericin, 150 μg/ml MSU) treated with SFN (10 μM), 15-PGJ2 (10 μM) or DMF (50 μM) (15-PG: 15-PGJ2). Cells and supernatants were harvested after 5 h and analysed for inflammasome activation by ELISA measurement of IL-1p and Western blots as indicated. (C) Freshly isolated PBMCs from human blood were primed overnight with upLPS (100 ng/ml) and treated with SFN (10 μM), tBHQ (10 μM), DMF (50 μM) or 15-PGJ2 (10 μM) 1 h before inflammasome activation by nigericin (5 μM). ELISA measurement for secretion of IL-1β as readout for inflammasome activation was performed after 5 h. (D) HPKs or (E) differentiated and primed THP-1 cells were pretreated with cycloheximide (CHX, 30 μg/ml) to block protein synthesis for 1 h before SFN (10 μM) was added to the cells and after an additional hour the inflammasome was activated by (D) irradiation with UVB or (E) treatment with nigericin (5 μM). Cells and supernatants were harvested after (D) 6 h or (E) 3.5 h and analysed for inflammasome activation by Western blot as indicated. (A-E) Representative experiments performed at least three times are shown. Statistics: (A-C) Error bars represent the mean±SD of a representative experiment performed in triplicates. One-way ANOVA was performed. **P≤0.01; ***P≤0.001.

NLRP3 inflammasome [2] = assay: UVB irradiation-induced inflammasome activation in HPKs (IL-1β ELISA, Western blot); type: cell-based, human; conditions: for relative efficiency/potency of inflammasome inhibition between compounds: UVB, same concentrations; for relative efficiency/potency of inflammasome inhibition between compounds / inflammasome activation (processed caspase-1, mature IL-1β and -18 in the supernatant): FIG. 2A, 8A-C; for inflammasome activation (processed caspase-1, mature IL-1β and -18 in the supernatant): different doses, UVB 30 min later, harvested after 5 h
Text: as §1, §2, §3
(§4) FIG. 8: (A-C) HPKs were treated with the Nrf2 activating compounds (A) SFN, (B) DMF, and (C) 15d-PGJ2, irradiated with UVB 30 min later and harvested after 5 h. Analogous experiment as described in FIG. 2A for tBHQ. (D) THP-1 cells were differentiated with TPA for 3 d and primed with LPS overnight. Then, cells were treated with the solvent DMSO, SFN (10 μM) or 15-PGJ2 (10 μM). After 30 min the inflammasome was activated by nigericin treatment and cells and supernatants were harvested after 2.5 h. Western blots showing prolL-1β and mature IL-1p in the lysate and supernatant. 20% lysate and supernatant of a 12 well was used, respectively, in order to allow a comparison. IL-1β was quantified in the supernatant by ELISA and cytotoxicity by LDH release.

THP-1 cells = assay: Pyroptosis in inflammasome activated THP-1 cells (LDH release); type: cell-based, human; conditions: THP-1, 10 μM 30 min before nigericin, 2.5 h, FIG. 8D
Procedure: To determine the effects of Nrf2 activating compounds on inflammasome activation, the inventors treated keratinocytes with different doses of SFN, tBHQ, DMF or 15d-PGJ2 and irradiated the cells with UVB. […] As the Nrf2 activators were added to the cells only 15 to 30 min prior to inflammasome activation, it is unlikely that Nrf2 target genes are involved in inflammasome inhibition.
Supernatants were harvested and after centrifugation (400×g) used for analysis. Cells were lysed in culture medium with 2% Triton X-100 for 10 min, LDH activity was determined according to the manufacturer (Cytotox 96 nonradioactive cytotoxicity assay, Promega, Madison, US-WC).
as §4, with “20% lysate and supernatant of a 12 well was used, respectively, in order to allow a comparison.” left out

T1 sequence (Q96P20 whole entry): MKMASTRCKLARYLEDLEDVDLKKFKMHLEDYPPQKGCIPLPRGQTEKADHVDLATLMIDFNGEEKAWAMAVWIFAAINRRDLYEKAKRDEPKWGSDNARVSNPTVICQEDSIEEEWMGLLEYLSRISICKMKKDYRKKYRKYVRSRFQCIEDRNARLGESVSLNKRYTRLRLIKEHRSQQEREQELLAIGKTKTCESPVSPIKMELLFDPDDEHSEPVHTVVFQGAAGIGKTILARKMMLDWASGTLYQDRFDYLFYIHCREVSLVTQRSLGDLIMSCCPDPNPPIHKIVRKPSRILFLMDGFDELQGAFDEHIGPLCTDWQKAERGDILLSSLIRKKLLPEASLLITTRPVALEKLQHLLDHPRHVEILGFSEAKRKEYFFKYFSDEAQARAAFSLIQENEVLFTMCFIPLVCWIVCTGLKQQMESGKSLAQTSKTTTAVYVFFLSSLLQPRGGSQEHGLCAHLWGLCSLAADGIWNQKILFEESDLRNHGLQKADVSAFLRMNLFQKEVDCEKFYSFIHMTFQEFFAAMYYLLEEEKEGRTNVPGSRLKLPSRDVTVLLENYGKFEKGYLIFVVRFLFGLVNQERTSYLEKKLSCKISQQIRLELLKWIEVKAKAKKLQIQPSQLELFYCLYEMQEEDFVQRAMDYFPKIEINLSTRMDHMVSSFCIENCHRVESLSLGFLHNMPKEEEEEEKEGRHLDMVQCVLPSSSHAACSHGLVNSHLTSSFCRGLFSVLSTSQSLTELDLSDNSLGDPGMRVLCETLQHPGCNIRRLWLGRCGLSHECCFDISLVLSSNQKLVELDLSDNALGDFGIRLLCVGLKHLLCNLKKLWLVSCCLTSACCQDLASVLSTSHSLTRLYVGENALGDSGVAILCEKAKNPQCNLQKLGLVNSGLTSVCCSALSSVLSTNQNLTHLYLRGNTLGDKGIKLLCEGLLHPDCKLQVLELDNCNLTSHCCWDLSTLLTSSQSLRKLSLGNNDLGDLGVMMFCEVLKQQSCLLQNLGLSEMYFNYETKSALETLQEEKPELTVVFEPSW

SMILES	IL-1β secretion (NLRP3 inflammasome [1])	inflammasome inhibition by SFN with protein synthesis blocked by cycloheximide (NLRP3 inflammasome [2]; CHX 30 μg/ml 1 h before SFN 10 μM, UVB 1 h later, 6 h, FIG. 2D)	relative efficiency/potency of inflammasome inhibition between compounds (NLRP3 inflammasome [2])	inflammasome activation (processed caspase-1, mature IL-1β and -18 in the supernatant) (NLRP3 inflammasome [2])	pyroptosis (release of lactate dehydrogenase) (THP-1 cells)
C[S+]([O-])CCCCN=C=S (stereo not drawn) [SFN, sulforaphane]	inhibited IL-1β secretion	did not prevent inflammasome inhibition	much more efficient than tBHQ and DMF	inhibited inflammasome activation in a dose-dependent manner	strongly inhibited pyroptosis
CCCCCC=CC=C1C(=O)C=CC1CC=CCCCC(=O)O [15d-PGJ2, 15-deoxy-D-prostaglandin J2]	inhibited IL-1β secretion	–	much more efficient than tBHQ and DMF	inhibited inflammasome activation in a dose-dependent manner	strongly inhibited pyroptosis
